These results are taken from patent US10105357B2, “Indication of antibiotic drugs for preparation of cancer inhibition pharmaceutical composition” (LAUNX BIOMEDICAL CO., LTD., priority 2014, dated 2018).

Assay [1] deals with A549 (Lung Adenocarcinoma). In words: Cell viability analysis, lung cancer A549. It is filed as cell-based, human. The conditions noted are these: Homo sapiens.
Assay [2] relates to HL-60 (Acute Promyelocytic Leukemia). Kind of assay: Cell viability analysis, leukemia HL-60. The conditions noted are these: Homo sapiens. It is filed as cell-based, human.
For assay [3], the system named is HeLa (Cervix Adenocarcinoma). Kind of assay: Cell viability analysis, cervical cancer HeLa. In kind it is cell-based, human. The conditions noted are these: Homo sapiens, HeLa.
Assay [4] relates to MCF7 (Mammary Gland, Adenocarcinoma). Kind of assay: Cell viability analysis, breast cancer MCF7. It is filed as cell-based, human. The following applies: Homo sapiens.
The test system of assay [5] is HepG2 (Hepatocellular Carcinoma). Kind of assay: Cell viability analysis, hepatic cancer HepG2. In kind it is cell-based, human. The conditions noted are these: Homo sapiens.
Assay [6] has as its system HI650 (Lung Adenocarcinoma). In words: Cell viability analysis, lung cancer HI650. In kind it is cell-based, human. The following applies: Homo sapiens.
Assay [7] relates to PC3 (p53−) (Prostate Adenocarcinoma). In words: Cell viability analysis, prostate cancer PC3. It is filed as cell-based, human. The following applies: Homo sapiens.
The subject of assay [8] is A375 (Amelanotic Melanoma). In words: Cell viability analysis, skin cancer A375. The conditions noted are these: Homo sapiens. In kind it is cell-based, human.
Assay [9] deals with LoVo (Colorectal Adenocarcinoma). In words: Cell viability analysis, colon cancer LoVo. It is filed as cell-based, human. The following applies: Homo sapiens, LoVo.
For assay [10], the system named is HCT116 (p53+) (Colorectal Carcinoma). In words: cells. The following applies: Homo sapiens, HCT-116, 72 h, read-out: cell viability (survival rate), HCT116.
The test system of assay [11] is MKN-45 (Gastric Adenocarcinoma). Kind of assay: Cell viability analysis, gastric cancer MKN-45. It is filed as cell-based, human. The following applies: Homo sapiens.
Assay [12] concerns AGS (Gastric Adenocarcinoma). In words: Cell viability analysis, gastric cancer AGS. It is filed as cell-based, human. The conditions noted are these: Homo sapiens.
Assay [13] has as its system TSGH-8301 (Urinary Bladder Carcinoma). In words: Cell viability analysis, bladder cancer TSGH-8301. In kind it is cell-based, human. The conditions noted are these: Homo sapiens.
[14] abbreviates: A549, 72 h, read-out: cell viability (survival rate), A549, drug 10 μM, 72 hours, WST-1, OD450 nm.
Setting [15] is: HL-60, 72 h, read-out: cell viability (survival rate), HL-60, drug 10 μM, 72 hours, WST-1, OD450 nm.
Where [16] appears, read: 72 h, read-out: cell viability (survival rate), HeLa, drug 10 μM, 72 hours, WST-1, OD450 nm.
Setting [17] is: MCF7, 72 h, read-out: cell viability (survival rate), MCF7, drug 10 μM, 72 hours, WST-1, OD450 nm.
The mark [18] stands for this setting: HepG2, 72 h, read-out: cell viability (survival rate), HepG2, drug 10 μM, 72 hours, WST-1, OD450 nm.
Setting [19] is: NCI-H1650, 72 h, read-out: cell viability (survival rate), H1650, drug 10 μM, 72 hours, WST-1, OD450 nm.
[20] abbreviates: 72 h, read-out: cell viability (survival rate), PC3, drug 10 μM, 72 hours, WST-1, OD450 nm.
The mark [21] stands for this setting: A-375, 72 h, read-out: cell viability (survival rate), A375, drug 10 μM, 72 hours, WST-1, OD450 nm.
[22] abbreviates: 72 h, read-out: cell viability (survival rate), LoVo, drug 10 μM, 72 hours, WST-1, OD450 nm.
Where [23] appears, read: MKN-45, 72 h, read-out: cell viability (survival rate), MKN-45, drug 10 μM, 72 hours, WST-1, OD450 nm.
[24] abbreviates: 72 h, read-out: cell viability (survival rate), AGS, drug 10 μM, 72 hours, WST-1, OD450 nm.
The mark [25] stands for this setting: 72 h, read-out: cell viability (survival rate), TSGH, drug 10 μM, 72 hours, WST-1, OD450 nm.
Where [26] appears, read: A549, drug 10 μM, 72 hours, WST-1, OD450 nm, read-out: cell viability (survival rate), A549.
[27] abbreviates: HL-60, drug 10 μM, 72 hours, WST-1, OD450 nm, read-out: cell viability (survival rate), HL-60.
The mark [28] stands for this setting: drug 10 μM, 72 hours, WST-1, OD450 nm, read-out: cell viability (survival rate), HeLa.
[29] abbreviates: MCF7, drug 10 μM, 72 hours, WST-1, OD450 nm, read-out: cell viability (survival rate), MCF7.
[30] abbreviates: HepG2, drug 10 μM, 72 hours, WST-1, OD450 nm, read-out: cell viability (survival rate), HepG2.
[31] abbreviates: NCI-H1650, drug 10 μM, 72 hours, WST-1, OD450 nm, read-out: cell viability (survival rate), H1650.
Where [32] appears, read: drug 10 μM, 72 hours, WST-1, OD450 nm, read-out: cell viability (survival rate), PC3.
Setting [33] is: A-375, drug 10 μM, 72 hours, WST-1, OD450 nm, read-out: cell viability (survival rate), A375.
The mark [34] stands for this setting: drug 10 μM, 72 hours, WST-1, OD450 nm, read-out: cell viability (survival rate), LoVo.
[35] abbreviates: MKN-45, drug 10 μM, 72 hours, WST-1, OD450 nm, read-out: cell viability (survival rate), MKN-45.
Where [36] appears, read: drug 10 μM, 72 hours, WST-1, OD450 nm, read-out: cell viability (survival rate), AGS.
The mark [37] stands for this setting: drug 10 μM, 72 hours, WST-1, OD450 nm, read-out: cell viability (survival rate), TSGH.
The mark [38] stands for this setting: A549, 72 h, drug 10 μM, 72 hours, WST-1, OD450 nm, read-out: cell viability (survival rate), A549.
Setting [39] is: HL-60, 72 h, drug 10 μM, 72 hours, WST-1, OD450 nm, read-out: cell viability (survival rate), HL-60.
The mark [40] stands for this setting: 72 h, drug 10 μM, 72 hours, WST-1, OD450 nm, read-out: cell viability (survival rate), HeLa.
The mark [41] stands for this setting: MCF7, 72 h, drug 10 μM, 72 hours, WST-1, OD450 nm, read-out: cell viability (survival rate), MCF7.
Where [42] appears, read: HepG2, 72 h, drug 10 μM, 72 hours, WST-1, OD450 nm, read-out: cell viability (survival rate), HepG2.
[43] abbreviates: NCI-H1650, 72 h, drug 10 μM, 72 hours, WST-1, OD450 nm, read-out: cell viability (survival rate), H1650.
Where [44] appears, read: 72 h, drug 10 μM, 72 hours, WST-1, OD450 nm, read-out: cell viability (survival rate), PC3.
Setting [45] is: A-375, 72 h, drug 10 μM, 72 hours, WST-1, OD450 nm, read-out: cell viability (survival rate), A375.
The mark [46] stands for this setting: MKN-45, 72 h, drug 10 μM, 72 hours, WST-1, OD450 nm, read-out: cell viability (survival rate), MKN-45.
Setting [47] is: 72 h, drug 10 μM, 72 hours, WST-1, OD450 nm, read-out: cell viability (survival rate), AGS.
Setting [48] is: 72 h, drug 10 μM, 72 hours, WST-1, OD450 nm, read-out: cell viability (survival rate), TSGH.

Where two headings read alike, the source gives them in different places.

Take `C[N+](C)(C)CCO.[Cl-]` [Choline Chloride]: the viability at 10 µM in assay [1] (A549, 72 h, read-out: cell viability (survival rate), A549) was found to be 96%; in assay [2] (HL-60, 72 h, read-out: cell viability (survival rate), HL-60) it was 91.1%; in [3] (72 h, read-out: cell viability (survival rate), HeLa), 103%; in [4] (MCF7, 72 h, read-out: cell viability (survival rate), MCF7), 108%; in assay [5] (HepG2, 72 h, read-out: cell viability (survival rate), HepG2) it was 103%; in assay [6] (NCI-H1650, 72 h, read-out: cell viability (survival rate), H1650), 90.2%. Further, the viability at 10 µM in assay [7] (72 h, read-out: cell viability (survival rate), PC3) turned out to be 106%; in [8] (A-375, 72 h, read-out: cell viability (survival rate), A375), 132%; in [9] (72 h, read-out: cell viability (survival rate), LoVo), 76.7%; in [10], 104%; in assay [11] (MKN-45, 72 h, read-out: cell viability (survival rate), MKN-45), 99.3%; in assay [12] (72 h, read-out: cell viability (survival rate), AGS), 97.1%. Also, the viability at 10 µM in assay [13] (72 h, read-out: cell viability (survival rate), TSGH) was determined as 129%.
For `CN(C)[C@@H]1C(O)=C(C(=O)NCN2CCCC2)C(=O)[C@@]2(O)C(O)=C3C(=O)c4c(O)cccc4[C@@](C)(O)[C@H]3C[C@@H]12` [Rolitetracycline], the viability at 10 µM in [1] (setting [14]) worked out at 112%; in assay [2] (setting [15]) it was 102%; in [3] (setting [16]), 53.9%; in [4] (setting [17]), 88.8%; in assay [5] (setting [18]) it was 71.2%; in assay [6] (setting [19]), 113%. The viability at 10 µM came to 105% in assay [7] (setting [20]); 82.5% in [8] (setting [21]); 86.1% in assay [9] (setting [22]); 67.7% in [10]; 95.7% in [11] (setting [23]); 61.1% in [12] (setting [24]). Also, the viability at 10 µM in [13] (setting [25]) was 54.3%.
As for `COC(=O)C1=CO[C@@H](O[C@@H]2O[C@H](CO)[C@@H](O)[C@H](O)[C@H]2O)[C@@H]2C(CO)=CC[C@H]12` [Geniposide], the viability at 10 µM in [1] (setting [26]) was 63.7%; in [2] (setting [27]), 120%; in assay [3] (setting [28]), 81%; in assay [4] (setting [29]) it was 73.8%; in [5] (setting [30]) it was 88.6%; in assay [6] (setting [31]) it was 71.2%. Moreover, the viability at 10 µM in assay [7] (setting [32]) worked out at 65.5%; in assay [8] (setting [33]), 73.4%; in assay [9] (setting [34]), 74.1%; in assay [10], 73.9%; in assay [11] (setting [35]), 45.6%; in [12] (setting [36]) it was 54.2%. For the same molecule, the viability at 10 µM in [13] (setting [37]) turned out to be 53.1%.
As to `O[C@@H]1CO[C@H]2[C@@H]1OC[C@@H]2O` [Isosorbide], the viability at 10 µM is 60.7% in [1] (setting [14]); 125% in [2] (setting [15]); 72.8% in assay [3] (setting [16]); 78.6% in [4] (setting [17]); 90.1% in [5] (setting [18]); 73.3% in assay [6] (setting [19]). Moreover, the viability at 10 µM in assay [7] (setting [20]) stood at 94.3%; in assay [8] (setting [21]) it was 53.5%; in assay [9] (setting [22]) it was 81.8%; in assay [10], 55.1%; in assay [11] (setting [23]), 93.1%; in assay [12] (setting [24]), 69%. For the same molecule, the viability at 10 µM in assay [13] (setting [25]) stood at 77.5%.
Turning to `COC(=O)N/N=C/c1c[n+]([O-])c2ccccc2[n+]1[O-]` [Carbadox], the viability at 10 µM is 24.8% in assay [1] (setting [38]); 87% in assay [2] (setting [39]); 60% in [3] (setting [40]); 34.6% in [4] (setting [41]); 88.7% in [5] (setting [42]); 56.9% in assay [6] (setting [43]). Also, the viability at 10 µM in assay [7] (setting [44]) came out at 52.5%; in [8] (setting [45]), 52.4%; in assay [9] (setting [22]), 54.4%; in assay [10], 72.8%; in assay [11] (setting [46]) it was 104%; in assay [12] (setting [47]), 51.9%. In addition, the viability at 10 µM in assay [13] (setting [48]) amounted to 67.9%.
For the molecule `O=C(O)c1ccccc1` [Benzoic acid], the viability at 10 µM in [1] (setting [26]) was 36.7%; in [2] (setting [27]) it was 111%; in [3] (setting [28]) it was 59.6%; in assay [4] (setting [29]), 31.4%; in assay [5] (setting [30]) it was 79.1%; in [6] (setting [31]) it was 57.2%. In addition, the viability at 10 µM was 36.8% in assay [7] (setting [32]); 37% in [8] (setting [33]); 60.5% in assay [9] (setting [34]); 41.9% in assay [10]; 43.4% in [11] (setting [35]); 53.1% in [12] (setting [36]). The viability at 10 µM in [13] (setting [37]) was 39.5%.
Take `CCc1oc2ccccc2c1C(=O)c1cc(Br)c(O)c(Br)c1` [Benzbromarone]: the viability at 10 µM in [1] (setting [38]) turned out to be 51.5%; in [2] (setting [39]) it was 85.5%; in assay [3] (setting [40]), 104%; in assay [4] (setting [41]), 52.8%; in assay [5] (setting [42]), 103%; in assay [6] (setting [43]), 75.3%. Moreover, the viability at 10 µM in assay [7] (setting [44]) was found to be 80.9%; in [8] (setting [45]) it was 99.2%; in [9] (setting [22]), 105%; in [10] it was 128%; in [11] (setting [46]) it was 86.2%; in assay [12] (setting [47]), 80.1%. Besides, in assay [13] (setting [48]), the viability at 10 µM is 99.9%.
